pIC50: −log10 of the molar value. Where two headings read alike, the source gives them in different places.
Legend:
Assay type in all cases: cell-based, human
A549 cells = assay: MTT cytotoxicity, lung cancer cells A549
Outline: (§1)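 Healthy HUVEC cells grew in DMEM, cancer lines in RPMI-1640 or DMEM with 10% FBS. After overnight attachment, compounds (0.1, 1, 5, 10 μM) act for 48 and/or 72 h before a 4 h MTT step and 570/630 nm reading; IC50 is taken from dose-response curves.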

CAKI-1 cells = assay: MTT cytotoxicity, kidney cancer cells CAKI-1
Outline: as §1

HUVEC cells = assay: MTT cytotoxicity, healthy cells HUVEC; settings: for pIC50: MTT
Outline: as §1

MCF-7 cells = assay: MTT cytotoxicity, breast cancer cells MCF-7; settings: MTT
Outline: as §1

MCF-10F/Beas2b cells = assay: MTT cytotoxicity, healthy cells MCF-10F/Beas2b
Outline: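 Viability was quantified by MTT reduction following 48 and/or 72 h compound exposure at four concentrations (0.1, 1, 5, 10 μM). Values are percentages of DMSO-treated controls, with IC50 fitted from dose-response data.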

HT-29 cells = assay: MTT cytotoxicity, colon cancer cells HT-29; settings: MTT
Outline: (§2)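 Cells were seeded at 5000 per well and treated next day with compound at 0.1, 1, 5 and 10 μM (final) for 48 and/or 72 h, with matched DMSO controls. MTT was added for 4 h and formazan was dissolved in DMSO and read at 570/630 nm. % viability against control gave IC50 from dose-response curves.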

HCT-116 cells = assay: MTT cytotoxicity, colon cancer cells HCT-116
Outline: as §2

A498 cells [1] = assay: MTT cytotoxicity, kidney cancer cells A498; settings: for pIC50: MTT
Outline: as §1

[2] = system: general tyrosine kinase activity in A498 kidney cancer cells; assay: General tyrosine kinase activity (ELISA) in A498 cells; settings: 72 h, IC50 concentration
Procedure: (§3) Takara Universal Tyrosine Kinase Assay Kit is used to determine the effects of 11 2-indolinone compounds (Y1, Y2, Y3, Y4, Y5, Y8, […], […], Y21, Y23, 20C, 22C) on general tyrosine kinase activity in cancer cells. Cells are seeded in 6-well plates (4.10^5 cells/well) and the IC50 concentration of each selected molecule is performed to the cells for 48 or 72 hours. Cells in the control group are incubated with medium only. At the end of the incubation period, the cells in each well are washed with PBS and cells are removed from the wells using a cell scraper via 1 ml of the extraction buffer in the kit. The cell lysate is transferred to ependorf tubes and centrifuged at 10.000 g for 10 minutes at +4° C. and the supernatant is used as a sample for activity determination. After the extracts obtained from the control and experimental groups are diluted 1:25, 40 μl extracts is transferred to two wells in the 96-well plate in the kit. In addition, the standard solution in the kit is diluted according to the kit instructions and each concentration is transferred 40 μl into three wells. 10 μl of 40 mM ATP-2Na solution is added to all wells and the plate is incubated at 37° C. for 30 minutes. […] The reaction is finished by adding 100 μl of stop solution to each well and the optical density in each well is measured at 405 nm with a microplate reader (BioTek, USA). The tyrosine kinase activity in each sample is calculated from the standard curve obtained from the absorbance values of the standard solutions with the kit (Chan W Y, Lau P M, Yeung K W, Kong S K. The second generation tyrosine kinase inhibitor dasatinib induced eryptosis in human erythrocytes—An in vitro study. Toxicol Lett. 2018; 295:10-21). […]
The effects of 11 2-indolinone compounds (Y1, Y2, Y3, Y4, Y5, Y8, Y14, Y21, Y23, 20C and 22C) having the structure of formula (5), which are prominent with their cytotoxicity in A498, MIAPaCa-2 and HCT-116 cancer cell lines and nontoxic properties in healthy cells, on general tyrosine kinase activity in cancer cells are determined.

MIAPaCa-2 cells [3] = assay: MTT cytotoxicity, pancreas cancer cells MIAPaCa-2
Outline: as §2

MDA-MB-231 cells = assay: MTT cytotoxicity, breast cancer cells MDA-MB-231; settings: MTT, no * mark (incubation time not given)
Outline: as §1

A498 cells [4] = assay: Apoptosis/necrosis detection, Annexin V/PI flow cytometry, A498; settings: A498
Procedure: (§4) After incubation with 2-indolinone compounds (IC50 μM concentration; 48 and/or 72 hours), cells are washed twice with PBS and the cell pellet is suspended in Annexin V binding buffer. After this incubation, cells are incubated with FITC-conjugated Annexin V and propidium iodine staining solution for 15 minutes in the dark and at room temperature. Then, cells are analyzed by flow cytometry (Beckman coulter, Navios) (Wlodkowic, D., Skommer, J, Darzynkiewicz, Z. 2009. Flow cytometry-based apoptosis detection, Methods Mol Biol., 559, 1-14).

MIAPaCa-2 cells [5] = assay: Apoptosis/necrosis detection, Annexin V/PI flow cytometry, MiaPaca-2
Procedure: as §4

[6] = system: general tyrosine kinase activity in HCT116 colon cancer cells; assay: General tyrosine kinase activity (ELISA) in HCT-116 cells; settings: 72 hours, IC50 concentration
Procedure: as §3, with “determination.” for “determination. After the extracts obtained from the control and experimental groups are diluted 1:25, 40 μl extracts is transferred to two wells in the 96-well plate in the kit. In addition, the standard solution in the kit is diluted according to the kit instructions and each concentration is transferred 40 μl into three wells. 10 μl of 40 mM ATP-2Na solution is added to all wells and the plate is incubated at 37° C. for 30 minutes.”

[7] = no * mark (incubation time not specified)
[8] = MTT, no * mark (incubation time not specified)
[9] = read-out: IC50, MDA-MB-231 (breast)
[10] = *: effective 72 hours after incubation

With `Cn1cc(/C=C2\C(=O)N(Cc3ccccc3)c3ccc(Cl)cc32)c2ccccc21` [Y23] as the molecule, how does the pIC50 (A549 cells; [7]) read?
Its pIC50 is < 5.00.

And the pIC50 (CAKI-1 cells; [7])?
Its pIC50 is 5.30.

What about the “Selectivite Index (SI), HUVEC (Table 1)” value (HUVEC cells; HUVEC vs breast or kidney cancer cells, cancer line not given) of the same molecule?
The value was 4.70.

What about the pIC50 (HUVEC cells; [7]) of the same molecule?
Its pIC50 is 5.38.

And the pIC50 (MCF-7 cells; [7])?
Its pIC50 is 5.31.

And the “Selectivite Index (SI), MCF-10F/Beas2b (Table 1)” value (MCF-10F/Beas2b cells; MCF-10F/Beas2b vs breast or kidney cancer cells, cancer line not given)?
The value was > 11.23.

And the pIC50 (HT-29 cells; [7])?
The pIC50 was 5.38.

What about the pIC50 (HCT-116 cells; [7]) of the same molecule?
Its pIC50 is 5.79.

And the selectivity index (A498 cells [1]; MCF-10F/Beas2b vs A498)?
Its selectivity index is > 11.

What about the pIC50 (A498 cells [1]; [7]) of the same molecule?
The pIC50 was 6.05.

And the “general tyrosine kinase activity compared to control” value [2]?
The value was “did not cause a significant change”.

And the pIC50 (MIAPaCa-2 cells [3]; [8])?
Its pIC50 is < 5.00.

What about the pIC50 (MDA-MB-231 cells; [9]) of the same molecule?
Its pIC50 is 5.33.

How did the pIC50 (A549 cells; Homo sapiens, A549, no * mark (incubation time not given)) turn out when `CCN(CC)CCNC(=O)c1c(C)[nH]c(/C=C2\C(=O)Nc3ccc(F)cc32)c1C` [Sunitinib malate, reference compound] was run?
Its pIC50 is < 5.00.

What about the pIC50 (CAKI-1 cells; Homo sapiens, CAKI-1, no * mark (incubation time not given)) of the same molecule?
Its pIC50 is 5.29.

And the pIC50 (HUVEC cells; Homo sapiens, HUVEC, no * mark (incubation time not given))?
Its pIC50 is 5.53.

And the pIC50 (MCF-7 cells; Homo sapiens, MCF7, no * mark (incubation time not given))?
The pIC50 was 5.01.

What about the “necrosis compared to control” value (A498 cells [4]) of the same molecule?
The value was “no increase or decrease”.

What about the “viability, early apoptosis and late apoptosis compared to control” value (A498 cells [4]; Y3 at IC50, sunitinib malate 10 μM) of the same molecule?
The value was 10 μM dose is found to be the most significant.

And the pIC50 (HT-29 cells; Homo sapiens, HT-29, no * mark (incubation time not given))?
The pIC50 was 5.53.

What about the pIC50 (HCT-116 cells; Homo sapiens, HCT-116, no * mark (incubation time not given)) of the same molecule?
The pIC50 was 5.75.

And the pIC50 (A498 cells [1]; Homo sapiens, A498, 72 h, *: effective 72 hours after incubation)?
The pIC50 was 5.46.

What about the pIC50 (A498 cells [1]; [7]) of the same molecule?
The pIC50 was 5.43.

And the pIC50 (A498 cells [1]; no * mark (incubation time not specified), listed as sunitinib malate)?
Its pIC50 is < 5.00.

What about the pIC50 (MIAPaCa-2 cells [3]; Homo sapiens, MIA PaCa-2, 72 h, MTT, *: effective 72 hours after incubation) of the same molecule?
Its pIC50 is 5.39.

And the pIC50 (MIAPaCa-2 cells [3]; Homo sapiens, MIA PaCa-2, MTT, no * mark (incubation time not given))?
The pIC50 was 6.21.

And the pIC50 (MIAPaCa-2 cells [3]; [8])?
The pIC50 was 5.93.

And the pIC50 (MDA-MB-231 cells; Homo sapiens, MDA-MB-231, read-out: IC50, MDA-MB-231 (breast))?
The pIC50 was < 5.00.

What about the “necrosis compared to control” value (MIAPaCa-2 cells [5]; MiaPaca-2) of the same molecule?
Its value is “did not cause necrosis”.

And the “apoptosis (early and late) compared to control” value (MIAPaCa-2 cells [5]; MiaPaca-2, IC50 values)?
The value was “increase in apoptosis at IC50 values was statistically significant”.

`Cc1cccc(CN2C(=O)/C(=C\c3c[nH]c4ccccc34)c3cc(Cl)ccc32)c1` [20C] was tested. Which pIC50 (A549 cells; [7]) did it give?
Its pIC50 is 5.39.

And the pIC50 (CAKI-1 cells; [10])?
Its pIC50 is 5.21.

And the “Selectivite Index, HUVEC (Table 2)” value (HUVEC cells; HUVEC vs colon or pancreas cancer cells, cancer line not given)?
The value was 5.63.

And the pIC50 (HUVEC cells; [7])?
The pIC50 was 5.82.

What about the pIC50 (MCF-7 cells; [7]) of the same molecule?
The pIC50 was < 5.00.

What about the “Selectivite Index, MCF-10F/Beas2b (Table 2)” value (MCF-10F/Beas2b cells; MCF-10F/Beas2b vs colon or pancreas cancer cells, cancer line not given) of the same molecule?
The value was 13.63.

And the pIC50 (MCF-10F/Beas2b cells; MTT, *: effective 72 hours after incubation)?
The pIC50 was 5.43.

What about the pIC50 (HT-29 cells; [7]) of the same molecule?
Its pIC50 is 5.94.

What about the “tyrosine kinase activity compared to control” value [6] of the same molecule?
Its value is “did not cause a significant change”.

What about the pIC50 (HCT-116 cells; [7]) of the same molecule?
Its pIC50 is 6.57.

What about the pIC50 (A498 cells [1]; [10]) of the same molecule?
The pIC50 was 6.01.

What about the pIC50 (MIAPaCa-2 cells [3]; [8]) of the same molecule?
The pIC50 was 5.86.

And the pIC50 (MDA-MB-231 cells; [9])?
Its pIC50 is < 5.00.
